In PubChem BioAssay AID1645866 (Buhrlage Lab, Dana-Farber Cancer Institute and Novartis …, 2021):
Calls of active or inactive are those of the source.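 How the source made its calls: active means in confirmatory dose-response testing, peak deubiquitinase inhibition of 30% or more; inactive means the rest.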

Biological target: Ubiquitin carboxyl-terminal hydrolase 28 (Homo sapiens) (UniProt Q96RU2)
Test: Concentration-response biochemical assay confirming initial hits as inhibitors of ubiquitin-specific protease 28 (AID 1645866)
Conditions: purified USP28, ubiquitin-rhodamine fluorescence, 30 min

Sequence of Ubiquitin carboxyl-terminal hydrolase 28 (Homo sapiens) (Q96RU2 whole entry, looked up): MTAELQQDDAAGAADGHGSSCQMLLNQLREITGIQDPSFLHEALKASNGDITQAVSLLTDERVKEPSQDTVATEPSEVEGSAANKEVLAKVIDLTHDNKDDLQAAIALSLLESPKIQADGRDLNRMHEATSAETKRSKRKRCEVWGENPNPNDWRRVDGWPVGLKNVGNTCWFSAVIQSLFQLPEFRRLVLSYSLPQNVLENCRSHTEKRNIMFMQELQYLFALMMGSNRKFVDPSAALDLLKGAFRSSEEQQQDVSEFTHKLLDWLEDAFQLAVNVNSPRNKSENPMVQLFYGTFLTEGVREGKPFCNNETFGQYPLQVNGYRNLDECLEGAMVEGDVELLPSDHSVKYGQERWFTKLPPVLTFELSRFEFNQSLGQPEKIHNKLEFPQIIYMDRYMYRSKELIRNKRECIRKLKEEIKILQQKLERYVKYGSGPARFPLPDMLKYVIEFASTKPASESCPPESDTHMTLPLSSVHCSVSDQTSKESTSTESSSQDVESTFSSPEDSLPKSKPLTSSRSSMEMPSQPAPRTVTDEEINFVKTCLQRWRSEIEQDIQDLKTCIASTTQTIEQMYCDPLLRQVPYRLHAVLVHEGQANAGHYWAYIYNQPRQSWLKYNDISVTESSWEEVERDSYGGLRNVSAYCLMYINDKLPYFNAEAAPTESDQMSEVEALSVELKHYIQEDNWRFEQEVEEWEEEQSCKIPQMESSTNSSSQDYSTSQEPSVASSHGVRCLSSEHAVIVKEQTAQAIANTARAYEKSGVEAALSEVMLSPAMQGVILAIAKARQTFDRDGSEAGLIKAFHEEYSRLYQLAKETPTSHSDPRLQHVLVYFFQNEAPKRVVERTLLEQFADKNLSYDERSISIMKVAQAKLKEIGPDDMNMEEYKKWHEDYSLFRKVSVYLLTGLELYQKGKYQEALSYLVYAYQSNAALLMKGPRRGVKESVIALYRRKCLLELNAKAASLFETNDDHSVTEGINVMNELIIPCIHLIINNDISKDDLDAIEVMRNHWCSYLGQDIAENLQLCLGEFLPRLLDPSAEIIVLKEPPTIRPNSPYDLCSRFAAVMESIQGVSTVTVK

Row | SMILES | IC50
1 | COc1cc(NC(=O)c2ccc3c(c2)OCO3)ccc1-c1cc2ccccc2oc1=O | 2.19 µM
2 | O=[N+]([O-])c1ccc(N2CCN(c3ncnc4c3[nH]c3ccc(F)cc34)CC2)cc1 | 0.225 µM
3 | COCCn1c(=O)[nH]c2cc(C(=O)NCCNc3ccc([N+](=O)[O-])cc3C#N)ccc2c1=O | 2.06 µM
4 | Cc1ccc(C(=O)Nc2cc3c4c(c2)CC(=O)N4CCC3)cc1C | 6.26 µM
5 | COc1cc(NC(=O)Cn2nc(-c3ccc(F)cc3)ccc2=O)ccc1-n1cnnn1 | 1.98 µM
6 | c1ccc(-c2nc(-c3nnn(-c4ccccc4)c3-c3ccncc3)no2)cc1 | 12.5 µM
7 | COc1ccc(CN2CCCC23CCCN(C(=O)CCc2cccnc2)C3)cc1F (stereo not given) | 26.4 µM
8 | O=C1C=CC(O)C2C1CC13SSC4(CC5C(=O)C=CC(O)C5N4C1=O)C(=O)N23 (stereo not given) | > 50 µM (inactive)
9 | Cc1cc(C)n(-c2ccc(C(=O)Nc3cccc(S(=O)(=O)N4CCCC4)c3)cc2)n1 | 2.13 µM
10 | COc1cccc(NC(=O)Nc2ccc3nc4n(c(=O)c3c2)CCCC4)c1 | 3.13 µM
11 | Fc1ccc(-c2noc(-c3nnc(NCc4cccnc4)c4ccccc34)n2)cc1 | 2.97 µM
12 | CC(=O)Nc1ccc(S(=O)(=O)NCc2ccc(C(=O)NCCc3ccc(Cl)cc3)cc2)cc1 | 1.77 µM
13 | O=C1CC(c2ccco2)Cc2[nH]c(=O)c(C(=O)Nc3ccc(Cl)cc3)cc21 (stereo not given) | 3.08 µM
14 | Clc1cc2nc(N3CCN(c4ccccn4)CC3)c3nncn3c2cc1Cl | 2.3 µM
15 | CN1CC2CN(C(=O)Nc3cccnc3)CCN2Cc2ccccc21 (stereo not given) | > 50 µM (inactive)
16 | COc1ccc(CNc2nn3c(-c4cncc(OC)c4)cnc3s2)cc1 | 2.61 µM
17 | COc1ccccc1N1CCN(C(=O)c2ccc3c(c2)N(Cc2cc(C)ccc2C)C(=O)c2ccccc2S3=O)CC1 (stereo not given) | 29.7 µM
18 | CSc1cccc(NC(=O)COc2cccc3ccccc23)c1 | 2.57 µM
19 | O=C(CN1C(=O)NC2(CCCCC2)C1=O)Nc1ccc([N+](=O)[O-])cc1 | 33.2 µM
20 | O=S(=O)(c1cccc2cccnc12)N(CCc1ccccc1)C1CCN(CCc2ccc(Cl)cc2)CC1 | > 50 µM (inactive)
21 | O=c1c(-c2nc(C3CC3)no2)cccn1Cc1c(F)cccc1Cl | 1.82 µM
22 | Cn1c(=O)/c(=C/c2ccccc2)[nH]c(=O)/c1=C/c1ccccc1 | 10.2 µM
23 | O=C(c1cc2ccccc2o1)N1CC=C(c2ccccc2)CC1 | > 50 µM (inactive)
24 | Cc1ccc(C)c(NC(=O)CCc2nc(CSc3nc4ccccc4o3)no2)c1 | 13.4 µM
25 | Nc1c(C(=O)NCCc2ccccc2)nnn1-c1ccc(F)cc1 | 42.5 µM

Row | SMILES | IC50
26 | COc1ccc(OC)c(NC(=O)CSc2nc(C)nc3c2oc2ccccc23)c1 | 8.65 µM
27 | COc1ccc(CCNC(=O)COc2ncnc3oc(C)c(C)c23)cc1OC | > 50 µM (inactive)
28 | O=C(c1ccc2occc2c1)N1CCC(S(=O)(=O)c2ccc(-c3ccco3)cc2)CC1 | > 50 µM (inactive)
29 | NS(=O)(=O)c1ccc(CNS(=O)(=O)c2ccc(-c3ccccn3)s2)cc1 | 19.9 µM
30 | CCCCNC(=O)c1cc2cccnc2n(Cc2ccccc2)c1=O | > 50 µM (inactive)
31 | O=C1CN(C(=O)COC(=O)CCCN2C(=O)c3cccc4cccc(c34)C2=O)c2ccccc2N1 | 48.5 µM
32 | O=C(CC(C(=O)Nc1ccc2c(c1)OCO2)C(=O)c1ccccc1)Nc1ccc(Cl)cc1F (stereo not given) | 9.87 µM
33 | O=C(Cn1cccc1-c1nc(-c2ccccc2)cs1)N1CCOCC1 | 18.3 µM
34 | COc1cccc(CC(=O)Nc2cc(F)c3nc(N4CCOCC4)ccc3c2)c1 | > 50 µM (inactive)
35 | COc1cccc2cc(C(=O)Nc3nc(-c4ccncc4)cs3)oc12 | 0.647 µM
36 | CC(C)(C)n1ncc2c(=O)n(Cc3cccc([N+](=O)[O-])c3)cnc21 | 6.69 µM
37 | Cc1nc(-c2noc3ccc(C(=O)Nc4cccnc4)cc23)cs1 | 15.7 µM
38 | COc1cc(Cn2cnc3c([nH]c4ccc(Br)cc43)c2=O)cc(OC)c1 | 2.76 µM
39 | O=C(NC1CCCC1)C1CC(=O)N(c2cccc(-c3noc(-c4cccs4)n3)c2)C1 (stereo not given) | 35.9 µM
40 | CC1CCc2c(sc3ncnc(OCc4cccc([N+](=O)[O-])c4)c23)C1 (stereo not given) | < 0.05 µM
41 | COc1ccc(-n2ccn3c(CCC(=O)NCc4ccc(F)cc4)nnc3c2=O)cc1 | 25.3 µM
42 | COc1ccc(NC(=O)CN2CCN(c3ccc(C(C)=O)cc3)CC2)cc1S(=O)(=O)N1CCCCC1 | 40.4 µM
43 | CN(C)S(=O)(=O)c1ccc(C(=O)Nc2c(C#N)oc3ccccc23)cc1 | > 50 µM (inactive)
44 | CCOc1ccc(NC(=O)Cn2c(=O)n(CC(=O)NCc3ccc(C)cc3)c(=O)c3sccc32)cc1 | 8.61 µM
45 | Cc1ccc(CNC(=O)CCCn2c(=O)c3sccc3n(CC(=O)Nc3cc(Cl)ccc3C)c2=O)cc1 | 2.87 µM
46 | COc1ccc(NC(=O)COc2cc(CSc3ccccc3)ncc2OC)cc1 | > 50 µM (inactive)
47 | CC1=C2C(=NCCN1)C(=O)N(c1ccccc1)C2c1cccnc1 (stereo not given) | > 50 µM (inactive)
48 | Cc1cc(-c2nnc(SCC(=O)Nc3ccc(Br)c(C)c3)n2N)n[nH]1 | 15.6 µM
49 | O=C(c1cc(-c2ccc(Cl)cc2)n[nH]1)N1CCN(C(=O)c2ccco2)CC1 | 25.8 µM
50 | Cc1noc(C)c1CN1CC[C@H]2O[C@H](C(=O)NCc3ccco3)CC[C@H]21 | > 50 µM (inactive)
